Data taken from patent US5817652A, “Hypolipidaemic condensed 1,4-thiazepines” (Glaxo Wellcome Inc., priority 1993, dated 1998).
Counter-ions that a name gives are not always drawn.

Tested on: rat distal ileal brush border membrane vesicles
Test: In vitro inhibition of bile acid uptake (sodium-dependent 3H taurocholate uptake)
Assay type: biochemical
Details: active (sodium-dependent) 3H taurocholate uptake, 30 seconds at 24° C., pH 7.4
Experimental: In vitro inhibition of bile acid uptake
Freshly prepared rat distal ileal brush border membrane vesicles (about […] vesicle protein) were incubated for 30 seconds at 24° C. in an incubation mixture comprising […] ^3 H taurocholate, 100 mM NaCl (or KCl) and 80 mM mannitol in 20 mM Herpes Tris pH 7.4. Each test compound was dissolved in ethanol (or water) and then diluted with incubation mixture to an ethanol concentration of not more than 1% v/v. The incubation was terminated by rapid dilution and filtration and the filter washed with an ice-cold isotonic sodium-free buffer.
The uptake of ^3 H taurocholate was measured by the radioactivity remaining on the filter and converted to pmoles/mg vesicle protein. The active, ie sodium-dependent, uptake was obtained by subtracting the passive uptake measured in 100 mM KCl from the total uptake measured in 100 mM NaCl. The active uptake for each test compound was compared with a control active uptake and the results expressed as % inhibition of bile acid uptake.

Row | SMILES | % inhibition of bile acid uptake (0.3 μM compound) | % inhibition of bile acid uptake (1 μM compound) | % inhibition of bile acid uptake (3 μM compound) | % inhibition of bile acid uptake (10 μM compound)
1 | CCC(=O)CC1(CC)CS(=O)(=O)c2ccccc2C(c2ccccc2)N1 (mixture of isomers) [Example 4, (±)-trans-1-(3-ethyl-2,3,4,5-tetrahydro-5-phenyl-1,4-benzothiazepin-3-yl)-2-butanone S,S-dioxide] | 28% | 54% | 77% | 90%
2 | CCC(=O)CC1(CC)CS(=O)(=O)c2cc(OC)ccc2C(c2ccccc2)N1 (mixture of isomers) [Example 5, (±)-trans-1-(3-ethyl-2,3,4,5-tetrahydro-8-methoxy-5-phenyl-1,4-benzothiazepin-3-yl)-2-butanone S,S-dioxide hydrochloride 1,1 hydrate] | 60% | 83% | 94% | 98%
3 | CCC1(/C=C/C(C)=O)CS(=O)(=O)c2ccccc2C(c2ccccc2)N1 (mixture of isomers) [Example 10, (±)-trans-(E)-4-(3-ethyl-2,3,4,5-tetrahydro-5-phenyl-1,4-benzothiazepin-3-yl)-3-buten-2-one 1,1-dioxide] | – | – | – | 69%
4 | CCC(=O)CC1(CC)CS(=O)(=O)c2ccc(OC)cc2C(c2ccccc2)N1 (mixture of isomers) [Example 51, (±)-Trans-1-(3-Ethyl-2,3,4,5-tetrahydro-7-methoxy-5-phenyl-1,4-benzothiazepin-3-yl)-2-butanone S,S-dioxide hydrochloride] | 66% | 91% | 100% | 100%
5 | CCOCCC1(CC)CS(=O)(=O)c2ccccc2C(c2ccccc2)N1 (racemic) [Example 7, (±)-trans-3-(ethoxyethyl)-3-ethyl-2,3,4,5-tetrahydro-5-phenyl-1,4-benzothiazepine 1,1-dioxide hydrochloride hemihydrate] | – | – | – | 53%
6 | COc1ccc2c(c1)S(=O)(=O)CC1(CCCCC1)NC2c1ccccc1 (racemic) [Example 11, (±)-2,3,4,5-tetrahydro-8-methoxy-5-phenylspiro(1,4-benzothiazepine-3,1-cyclohexane) 1,1-dioxide] | 15% | 33% | 36% | 64%
7 | O=S1(=O)CC2(CCCCC2)NC(c2ccccc2)c2ccccc21 (racemic) [Example 20, (±)-2,3,4,5-Tetrahydro-5-phenylspiro(1,4-benzothiazepine-3,1'-cyclohexane) 1,1-dioxide] | – | – | – | 27%
